What all share (type): cell-based
For one experiment, the system named is P. aeruginosa. The following applies: for Folds: with vs w/o albumin. How it is done:
(§1) To assess antimicrobial activity of PLP3 in a physiological relevant environment, MICs were performed at physiological human albumin concentrations. To this end, Mueller-Hinton broth (MHB) was supplemented with 40 mg/mL human albumin (A1653-5G, Merck) and broth microdilution protocol was used. SEQ ID NO: 4 (PLP-3) and colistin stocks were prepared both in MHB and albumin supplemented MHB. These were used for comparison of MICs in the presence or absence of albumin, and as a control.

For a further experiment, the system named is A. baumannii. The following applies: for Folds: with vs w/o albumin. As to the method:
as §1

Another experiment relates to Staphylococcus aureus. The settings on record: 19 strains (10/19 MRSA). From the text:
(§2) The Minimum Inhibitory Concentration (MIC) of PLP-3 peptide (SEQ D NO: 4) against a collection of clinically relevant Gram-positive bacterial strains was obtained via broth microdilution. The tested species Staphylococcus aureus, Enterococcus faecium and Enterococcus faecalis. The followed protocol was based on the Clinical & Laboratory Standards Institute (CLSI) and EUCAST Guidelines.
(§3) In these tests, MIC is the value defined as the lowest concentration of an antimicrobial which inhibits the macroscopic growth of a bacterial strain after 16-20 hours of incubation at 37° C. The results of this assay were obtained by visual identification of bacterial growth at the bottom of each well plate. Since the wells contained decreasing concentrations of the peptide, the final result was indicated as a concentration, MIC, expressed in μg/mL of the PLP-3.
(§4) Bacterial strains were streaked in Columbia Agar plates (Columbia Agar with 5% Sheep Blood 90 mm Stacker plates, Becton Dickinson) and incubated overnight at 37° C. Polypropylene round bottomed 96-well plates were filled with 50 μL/well of Cation Adjusted Mueller-Hinton Broth (CAMHB, 90922, 500 g, Sigma-Aldrich) and 50 μL of PLP-3 (at 4 times higher the chosen initial concentration of the test) were added to the first well of each row of the plate followed by 1:2 serial dilutions up until the 10th column of the plate. The 11th and 12th columns were used for positive and negative growth controls.
(§5) Stain inoculums were standardized by preparing a 1:100 dilution of 0.5 McFarland solutions in CAMHB. Plates were inoculated with 50 μL of the diluted inoculums and covered with an adhesive film before 16-20 hours of incubation at 37° C.
(§6) Two biological and two technical replicates were performed per strain.
(§7) Broth microdilution testing from a panel of clinical strains of each specie provided MIC50 and […] values (Table 7). Strains were either from clinical origin, relevant to current clinical situation, or commercially available strains belonging to the American Type Culture Collection (ATCC), S. aureus 29213. Regarding clinical strains collection, 10 out of the 19 S. aureus strains were resistant to methicillin (MRSA), and 11 out of the 22 E. faecium strains were resistant to Vancomycin (VRE).
(§8) MIC50 value represents the antimicrobial concentration value that inhibits the growth of 50% of the bacterial strain panel. […] value represents the antimicrobial concentration value that inhibits the growth of 90% the bacterial strain collection.

The subject of the next experiment is Enterococcus faecium. The settings on record: 22 strains (11/22 VRE).
Description: as §2, §3, §4, §5, §6, §7, §8

The test system of a further experiment is Enterococcus faecalis. The settings on record: 15 strains.
Description: as §2, §3, §4, §5, §6, §7, §8

Converted amounts (≈) assume the structure as drawn. Read-outs that look alike come from different tables or passages of the source.

For orientation: MIC50 means the lowest concentration that inhibits either 50% of growth or 50% of the strains tested, depending on the study. High values mean weaker potency, low ones greater potency. As a reminder, the MIC90 is an inhibitory concentration at the 90% level, which refers to growth in some studies and to a panel of isolates in others.

Regarding `CC(C)C[C@@H]1NC(=O)[C@H](CCCNC(=N)N)NC(=O)[C@H](CCCNC(=N)N)NC(=O)[C@H](CCCNC(=N)N)NC(=O)[C@H]2CCCN2C(=O)[C@H](CCCNC(=N)N)NC(=O)[C@H](CCCNC(=N)N)NC(=O)[C@H](C(C)C)NC(=O)[C@@H]2CSSC[C@H](NC1=O)C(=O)N[C@@H](Cc1ccccc1)C(=O)N[C@@H](C(C)C)C(=O)N[C@@H](CCCNC(=N)N)C(=O)N1CCC[C@@H]1C(=O)N[C@@H](CCCCN)C(=O)N[C@@H](Cc1ccccc1)C(=O)N[C@@H](C(C)C)C(=O)N[C@@H](C(C)C)C(=O)N2` [PLP-3, cyclo[RRRLCFVRPKFVVCVRRP]], the “MIC With Albumin 40 mg/mL” value amounted to 8 µg/mL with P. aeruginosa (strain ATCC 27853), 32 µg/mL against P. aeruginosa (strain R2), 4 µg/mL with A. baumannii (strain ATCC 17978) and 2 µg/mL with A. baumannii (strain CR17). The “MIC w/o Albumin” value was 2 µg/mL (≈ 0.882 µM) against P. aeruginosa (strain ATCC 27853), 4 µg/mL (≈ 1.76 µM) with P. aeruginosa (strain R2), 1 µg/mL (≈ 0.441 µM) in the experiment on A. baumannii (strain ATCC 17978) and 1 µg/mL (≈ 0.441 µM) against A. baumannii (strain CR17). Moreover, the Folds worked out at 2 with P. aeruginosa (strain ATCC 27853), 3 with P. aeruginosa (strain R2), 2 in the experiment on A. baumannii (strain ATCC 17978) and 1 in the experiment on A. baumannii (strain CR17). Besides, the MIC50 with Staphylococcus aureus was 4 µg/mL (≈ 1.76 µM); in the experiment on Enterococcus faecium it was 2 µg/mL (≈ 0.882 µM); against Enterococcus faecalis, 4 µg/mL (≈ 1.76 µM). In addition, the MIC90 with Staphylococcus aureus was found to be 8 µg/mL (≈ 3.53 µM); in the experiment on Enterococcus faecium, 2 µg/mL (≈ 0.882 µM); in the experiment with Enterococcus faecalis, 4 µg/mL (≈ 1.76 µM).

(Values after US20260242418A1, “CYCLIC PEPTIDES WITH ANTIBACTERIAL ACTIVITY AGAINST MULTIDRUG RESISTANT (MDR) PATHOGENS” (priority 2022, published 2026).)
